Where two headings read alike, the source gives them in different places.

Holding throughout (test): biochemical
What all share (set-up): species or system human cell line lysate

The target in test [1] is Tyrosine-protein kinase Fgr ; FGR ; P09769 (Homo sapiens, UniProt P09769).
Test [2] deals with 3-phosphoinositide-dependent protein kinase 1 ; PDPK1 ; O15530 (Homo sapiens, UniProt O15530).
Test [3] addresses Tyrosine-protein kinase SYK ; SYK ; P43405 (Homo sapiens, UniProt P43405).
For test [4], the target named is Microtubule-associated serine/threonine-protein kinase 2 ; MAST2 ; Q6P0Q8 (Homo sapiens, UniProt Q6P0Q8).
Test [5] addresses Serine/threonine-protein kinase pim-1 ; PIM1 ; P11309 (Homo sapiens, UniProt P11309).
The target in test [6] is Dual specificity protein kinase CLK2 ; CLK2 ; P49760 (Homo sapiens, UniProt P49760).
Test [7] has as its target Pyridoxal kinase ; PDXK ; O00764 (Homo sapiens, UniProt O00764).
Test [8] concerns the target Ephrin type-A receptor 2 ; EPHA2 ; P29317 (Homo sapiens, UniProt P29317).
Test [9] deals with Serine/threonine-protein kinase pim-2 ; PIM2 ; Q9P1W9 (Homo sapiens, UniProt Q9P1W9).
Test [10] addresses Isoform 2 of Protein-tyrosine kinase 2-beta ; PTK2B ; Q14289-2 (Homo sapiens, UniProt Q14289).
For test [11], the target named is T1, Dual specificity mitogen-activated protein kinase kinase 3 ; MAP2K3 ; P46734 (Homo sapiens, UniProt P46734).
T1 sequence (P46734 1-347): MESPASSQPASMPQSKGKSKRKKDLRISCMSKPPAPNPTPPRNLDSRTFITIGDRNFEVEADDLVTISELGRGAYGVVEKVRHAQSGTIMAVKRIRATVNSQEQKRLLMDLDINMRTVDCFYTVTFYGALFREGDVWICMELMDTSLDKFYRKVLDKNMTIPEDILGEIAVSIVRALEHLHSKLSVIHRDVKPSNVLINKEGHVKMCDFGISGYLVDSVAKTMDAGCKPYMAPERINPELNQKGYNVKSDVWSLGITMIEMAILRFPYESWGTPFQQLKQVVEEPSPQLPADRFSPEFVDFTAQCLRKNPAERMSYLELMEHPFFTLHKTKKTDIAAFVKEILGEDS

For test [12], the target named is Dual specificity protein kinase TTK ; TTK ; P33981 (Homo sapiens, UniProt P33981).
Test [13] addresses Isoform 2 of Casein kinase I isoform delta ; CSNK1D ; P48730-2 (Homo sapiens, UniProt P48730).
For test [14], the target named is Mitogen-activated protein kinase kinase kinase 1 ; MAP3K1 ; Q13233 (Homo sapiens, UniProt Q13233).
Test [15] concerns the target Tyrosine-protein kinase Lyn ; LYN ; P07948 (Homo sapiens, UniProt P07948).
For test [16], the target named is 1-phosphatidylinositol 3-phosphate 5-kinase ; PIKFYVE ; Q9Y2I7 (Homo sapiens, UniProt Q9Y2I7).
Test [17] deals with Maternal embryonic leucine zipper kinase ; MELK ; Q14680 (Homo sapiens, UniProt Q14680).
The target in test [18] is Serine/threonine-protein kinase N3 ; PKN3 ; Q6P5Z2 (Homo sapiens, UniProt Q6P5Z2).
The mark [19] stands for this setting: read-out: BAY-1143572 (10 µM) / %Intensity relative to DMSO.
The mark [20] stands for this setting: read-out: BAY-1251152 (10 µM) / %Intensity relative to DMSO.

Sequence of Isoform 2 of Casein kinase I isoform delta ; CSNK1D ; P48730-2 (P48730 whole entry, canonical isoform): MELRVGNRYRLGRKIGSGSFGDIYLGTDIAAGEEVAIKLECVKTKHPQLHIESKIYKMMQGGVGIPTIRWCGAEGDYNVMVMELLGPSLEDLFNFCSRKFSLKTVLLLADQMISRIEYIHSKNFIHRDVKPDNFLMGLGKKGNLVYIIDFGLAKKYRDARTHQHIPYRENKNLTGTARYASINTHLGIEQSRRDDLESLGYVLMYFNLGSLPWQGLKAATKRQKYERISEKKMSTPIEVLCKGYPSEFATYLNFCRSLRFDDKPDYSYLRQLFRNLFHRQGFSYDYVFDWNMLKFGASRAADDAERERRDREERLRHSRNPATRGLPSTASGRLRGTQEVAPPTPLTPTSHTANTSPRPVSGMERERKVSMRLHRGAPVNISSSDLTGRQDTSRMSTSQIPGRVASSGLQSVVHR
Sequence of Serine/threonine-protein kinase pim-2 ; PIM2 ; Q9P1W9 (Q9P1W9 whole entry, canonical isoform, one chain of several): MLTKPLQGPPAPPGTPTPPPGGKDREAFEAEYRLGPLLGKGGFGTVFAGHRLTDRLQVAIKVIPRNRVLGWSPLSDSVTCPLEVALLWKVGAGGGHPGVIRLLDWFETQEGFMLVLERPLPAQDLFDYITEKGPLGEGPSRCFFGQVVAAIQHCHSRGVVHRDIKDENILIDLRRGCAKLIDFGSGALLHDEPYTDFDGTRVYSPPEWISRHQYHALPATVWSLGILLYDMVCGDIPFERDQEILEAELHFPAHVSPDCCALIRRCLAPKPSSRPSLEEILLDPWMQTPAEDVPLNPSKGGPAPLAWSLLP
Sequence of 1-phosphatidylinositol 3-phosphate 5-kinase ; PIKFYVE ; Q9Y2I7 (Q9Y2I7 whole entry): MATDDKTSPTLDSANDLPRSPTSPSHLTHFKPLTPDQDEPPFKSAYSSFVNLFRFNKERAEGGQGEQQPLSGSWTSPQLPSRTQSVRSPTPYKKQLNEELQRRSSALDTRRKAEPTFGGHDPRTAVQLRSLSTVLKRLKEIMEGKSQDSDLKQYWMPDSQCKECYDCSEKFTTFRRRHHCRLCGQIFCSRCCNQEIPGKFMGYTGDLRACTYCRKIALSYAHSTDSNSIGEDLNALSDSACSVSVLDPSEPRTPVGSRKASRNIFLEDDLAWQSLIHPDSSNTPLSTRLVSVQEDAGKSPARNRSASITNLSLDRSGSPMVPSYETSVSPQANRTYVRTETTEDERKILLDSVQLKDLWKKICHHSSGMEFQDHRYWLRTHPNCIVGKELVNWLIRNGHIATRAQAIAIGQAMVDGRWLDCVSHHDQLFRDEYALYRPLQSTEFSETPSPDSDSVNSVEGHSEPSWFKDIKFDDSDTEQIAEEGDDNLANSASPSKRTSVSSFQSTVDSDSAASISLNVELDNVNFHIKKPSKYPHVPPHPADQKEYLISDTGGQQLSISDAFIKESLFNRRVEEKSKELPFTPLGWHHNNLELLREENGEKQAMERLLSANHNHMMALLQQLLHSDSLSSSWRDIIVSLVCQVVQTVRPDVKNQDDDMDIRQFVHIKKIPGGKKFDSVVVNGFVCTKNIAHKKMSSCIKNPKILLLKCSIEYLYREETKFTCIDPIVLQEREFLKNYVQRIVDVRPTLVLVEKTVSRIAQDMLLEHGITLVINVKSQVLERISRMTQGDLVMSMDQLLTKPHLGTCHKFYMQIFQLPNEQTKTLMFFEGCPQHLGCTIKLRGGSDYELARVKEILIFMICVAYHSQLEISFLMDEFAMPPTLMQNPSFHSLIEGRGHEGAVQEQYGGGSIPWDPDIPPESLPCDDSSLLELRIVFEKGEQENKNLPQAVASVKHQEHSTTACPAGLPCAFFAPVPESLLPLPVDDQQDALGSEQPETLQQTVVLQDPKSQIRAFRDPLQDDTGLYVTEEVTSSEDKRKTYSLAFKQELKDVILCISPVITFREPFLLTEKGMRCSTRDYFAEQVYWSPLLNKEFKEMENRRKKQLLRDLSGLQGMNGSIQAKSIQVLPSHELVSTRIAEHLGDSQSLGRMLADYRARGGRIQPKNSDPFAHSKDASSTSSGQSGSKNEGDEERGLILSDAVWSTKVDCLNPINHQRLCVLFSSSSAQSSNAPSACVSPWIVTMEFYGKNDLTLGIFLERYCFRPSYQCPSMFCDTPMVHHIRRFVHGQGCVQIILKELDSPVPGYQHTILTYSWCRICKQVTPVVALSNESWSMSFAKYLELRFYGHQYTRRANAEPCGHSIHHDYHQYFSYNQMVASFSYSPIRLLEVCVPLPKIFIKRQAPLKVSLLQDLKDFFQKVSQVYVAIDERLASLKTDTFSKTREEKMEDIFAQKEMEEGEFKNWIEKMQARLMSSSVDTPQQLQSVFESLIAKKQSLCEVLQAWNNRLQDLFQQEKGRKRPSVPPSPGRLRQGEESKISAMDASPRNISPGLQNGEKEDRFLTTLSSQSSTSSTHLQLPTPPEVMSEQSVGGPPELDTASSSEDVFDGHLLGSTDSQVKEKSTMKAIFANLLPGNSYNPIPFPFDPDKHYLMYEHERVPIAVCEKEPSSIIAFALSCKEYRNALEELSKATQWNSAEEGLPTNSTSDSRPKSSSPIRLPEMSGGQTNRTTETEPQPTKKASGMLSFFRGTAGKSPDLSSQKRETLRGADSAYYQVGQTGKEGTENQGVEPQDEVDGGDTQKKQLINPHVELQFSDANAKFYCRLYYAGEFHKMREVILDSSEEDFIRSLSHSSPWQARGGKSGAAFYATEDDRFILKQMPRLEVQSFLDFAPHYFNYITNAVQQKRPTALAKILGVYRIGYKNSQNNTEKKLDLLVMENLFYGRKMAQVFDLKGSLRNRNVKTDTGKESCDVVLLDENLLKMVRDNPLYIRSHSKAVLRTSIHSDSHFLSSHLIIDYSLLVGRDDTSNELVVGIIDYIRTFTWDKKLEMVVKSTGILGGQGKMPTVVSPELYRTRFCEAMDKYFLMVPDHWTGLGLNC
Sequence of Microtubule-associated serine/threonine-protein kinase 2 ; MAST2 ; Q6P0Q8 (Q6P0Q8 whole entry, one chain of several): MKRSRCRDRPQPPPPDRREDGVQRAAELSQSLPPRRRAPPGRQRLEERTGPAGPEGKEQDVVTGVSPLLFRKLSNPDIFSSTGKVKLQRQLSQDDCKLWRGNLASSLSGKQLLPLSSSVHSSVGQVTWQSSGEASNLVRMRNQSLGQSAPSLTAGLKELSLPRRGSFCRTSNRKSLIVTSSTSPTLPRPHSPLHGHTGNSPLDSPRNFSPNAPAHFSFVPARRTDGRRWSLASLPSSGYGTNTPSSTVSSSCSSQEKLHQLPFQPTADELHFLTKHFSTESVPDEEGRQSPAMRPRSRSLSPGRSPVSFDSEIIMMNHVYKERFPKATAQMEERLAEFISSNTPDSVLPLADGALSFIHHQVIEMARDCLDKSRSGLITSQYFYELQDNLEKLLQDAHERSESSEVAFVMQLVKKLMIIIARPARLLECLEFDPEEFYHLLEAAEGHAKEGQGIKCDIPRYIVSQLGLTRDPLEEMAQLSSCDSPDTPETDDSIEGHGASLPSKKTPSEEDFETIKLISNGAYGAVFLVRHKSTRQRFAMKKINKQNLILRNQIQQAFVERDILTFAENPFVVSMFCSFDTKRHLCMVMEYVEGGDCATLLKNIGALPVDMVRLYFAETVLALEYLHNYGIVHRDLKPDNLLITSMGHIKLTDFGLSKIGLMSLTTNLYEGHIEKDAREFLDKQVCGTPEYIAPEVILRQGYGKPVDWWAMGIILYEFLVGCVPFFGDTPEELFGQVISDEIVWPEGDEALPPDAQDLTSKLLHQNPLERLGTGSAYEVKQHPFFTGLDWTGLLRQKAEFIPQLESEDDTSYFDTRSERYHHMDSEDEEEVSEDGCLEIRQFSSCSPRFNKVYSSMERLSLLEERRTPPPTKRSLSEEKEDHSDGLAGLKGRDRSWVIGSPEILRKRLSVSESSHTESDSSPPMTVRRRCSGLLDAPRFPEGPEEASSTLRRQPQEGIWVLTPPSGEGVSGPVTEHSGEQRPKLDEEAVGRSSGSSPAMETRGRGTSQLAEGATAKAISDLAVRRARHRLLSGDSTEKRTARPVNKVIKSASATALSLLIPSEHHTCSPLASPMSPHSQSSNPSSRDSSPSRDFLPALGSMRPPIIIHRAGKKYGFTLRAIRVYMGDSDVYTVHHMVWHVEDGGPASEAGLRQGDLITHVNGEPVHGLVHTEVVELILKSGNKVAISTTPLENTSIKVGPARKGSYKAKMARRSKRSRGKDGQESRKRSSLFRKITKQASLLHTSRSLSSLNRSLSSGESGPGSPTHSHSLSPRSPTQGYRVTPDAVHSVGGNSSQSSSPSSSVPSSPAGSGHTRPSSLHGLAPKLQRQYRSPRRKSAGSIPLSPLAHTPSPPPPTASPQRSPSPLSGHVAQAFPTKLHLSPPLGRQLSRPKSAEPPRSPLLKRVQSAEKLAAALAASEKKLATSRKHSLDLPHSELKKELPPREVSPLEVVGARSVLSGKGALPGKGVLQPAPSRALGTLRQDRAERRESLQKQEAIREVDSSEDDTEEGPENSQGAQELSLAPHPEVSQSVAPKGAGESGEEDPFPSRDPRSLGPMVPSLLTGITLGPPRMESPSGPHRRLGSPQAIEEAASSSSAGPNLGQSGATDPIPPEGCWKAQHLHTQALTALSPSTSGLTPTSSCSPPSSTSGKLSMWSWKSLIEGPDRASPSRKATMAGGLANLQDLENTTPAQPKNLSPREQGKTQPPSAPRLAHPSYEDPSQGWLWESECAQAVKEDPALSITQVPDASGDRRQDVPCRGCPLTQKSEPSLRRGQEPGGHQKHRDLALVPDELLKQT
Sequence of Pyridoxal kinase ; PDXK ; O00764 (O00764 whole entry): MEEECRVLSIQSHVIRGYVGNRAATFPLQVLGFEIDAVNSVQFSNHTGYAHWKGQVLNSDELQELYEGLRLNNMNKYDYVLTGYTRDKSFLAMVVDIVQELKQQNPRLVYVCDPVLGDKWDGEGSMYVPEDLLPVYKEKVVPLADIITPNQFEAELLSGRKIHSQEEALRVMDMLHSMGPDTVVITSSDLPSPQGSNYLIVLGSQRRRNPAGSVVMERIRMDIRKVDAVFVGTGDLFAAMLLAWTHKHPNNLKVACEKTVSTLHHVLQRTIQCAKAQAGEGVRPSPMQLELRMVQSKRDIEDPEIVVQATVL

With `COc1cc(F)ccc1-c1ncnc(Nc2cccc(C[S@](C)(=N)=O)c2)n1` [BAY-1143572], the remaining activity at 10 µM in [1] (setting [19]) was 96.5%; in [2] (setting [19]), 114%; in test [3] (setting [19]), 106%; in test [4] (setting [19]), 42.2%; in [5] (setting [19]) it was 124%; in test [6] (setting [19]) it was 139%. The remaining activity at 10 µM in test [7] (setting [19]) came to 139%; in test [8] (setting [19]) it was 84.9%; in test [9] (setting [19]), 132%; in test [10] (setting [19]) it was 100%; in test [11] (setting [19]), 136%; in [12] (setting [19]), 86.7%. Also, the remaining activity at 10 µM in [13] (setting [19]) was determined as 108%; in [14] (setting [19]), 73.3%; in test [15] (setting [19]), 82%; in test [16] (setting [19]) it was 94.3%; in test [17] (setting [19]), 116%; in test [18] (setting [19]), 121%.
With `COc1cc(F)ccc1-c1cc(Nc2cc(CS(C)(=N)=O)ccn2)ncc1F` (stereo not drawn) [BAY-1251152], the remaining activity at 10 µM worked out at 97.1% in test [1] (setting [20]); 104% in test [2] (setting [20]); 94% in [3] (setting [20]); 32.9% in test [4] (setting [20]); 110% in [5] (setting [20]); 112% in test [6] (setting [20]). Besides, the remaining activity at 10 µM in test [7] (setting [20]) was found to be 119%; in test [8] (setting [20]), 103%; in test [9] (setting [20]) it was 102%; in test [10] (setting [20]), 98.1%; in test [11] (setting [20]), 119%; in [12] (setting [20]), 82.1%. Moreover, the remaining activity at 10 µM came out at 105% in test [13] (setting [20]); 82.4% in test [14] (setting [20]); 79.4% in test [15] (setting [20]); 102% in test [16] (setting [20]); 110% in [17] (setting [20]); 114% in test [18] (setting [20]).

The values are drawn from article doi:10.1101/2024.08.13.607785v1 (biorxiv, 2024).
